The nature of data set [1]: Oil component (base) solubility test. Type of data set: physicochemical. To be noted: in propylene glycol fatty acid ester. The protocol: Oil Component (Base) Solubility Test
(75% humidity), and at 60° C.

Data set [2] relates to IL-6 dependent RARα(+) human multiple myeloma cells U266. To be noted: SCID mice, oral 10 mg/kg/day for 28 consecutive days, FIG. 2.

On to `CC1(C)CCC(C)(C)c2cc(NC(=O)c3ccc(C(=O)O)cc3)ccc21` [Tamibarotene, 4-[(5,6,7,8-tetrahydro-5,5,8,8-tetramethyl-2-naphthalenyl)carbamoyl]benzoic acid], for which the “solubility and stability in the dissolved solution” value in data set [1] is “optimum”. On to `CC1=C(/C=C/C(C)=C/C=C/C(C)=C/C(=O)O)C(C)(C)CCC1` [ATRA, all-trans retinoic acid], for which, in data set [2], the “growth of U266 cells (volume of tumor)” value was “inhibited the growth”.
